Data published in article PMC2639213 (Journal of medicinal chemistry, 2008).

Target: APSR (Mycobacterium tuberculosis, UniProt P9WIK3)
Assay: standard radioactive assay measuring APSR reduction of 35S-labeled APS substrate
Format: biochemical, M. tuberculosis
Settings: for inhibition at 100 µM: read-out: inhibition of APSR activity, tested at 100 μM

APSR, sequence (P9WIK3 whole entry): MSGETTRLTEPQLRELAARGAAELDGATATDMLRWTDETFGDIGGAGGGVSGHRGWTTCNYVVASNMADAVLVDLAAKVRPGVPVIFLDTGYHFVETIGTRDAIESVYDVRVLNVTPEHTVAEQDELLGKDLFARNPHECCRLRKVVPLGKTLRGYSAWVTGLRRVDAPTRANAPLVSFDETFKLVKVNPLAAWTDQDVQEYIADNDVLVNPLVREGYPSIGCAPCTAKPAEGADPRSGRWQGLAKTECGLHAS

## O=C1c2ccccc2-c2ccccc21 [9-fluorenone]
  activity against APSR (in words): neither 9-fluorenone nor 2-nitro-9-fluorenone, which are closely related to 133896, exhibited significant activity

## O=C1c2ccccc2-c2cc([N+](=O)[O-])c([N+](=O)[O-])cc21 [NSC 133896]
  inhibition at 100 µM: > 50%

## O=C(O)CCc1nnc2c3ccccc3c3ccccc3c2n1 [NSC 327704]
  inhibition at 100 µM: > 50%

## O=C1c2ccccc2-c2ccc([N+](=O)[O-])cc21 [2-nitro-9-fluorenone]
  activity against APSR (in words): neither 9-fluorenone nor 2-nitro-9-fluorenone, which are closely related to 133896, exhibited significant activity
